Assay: gradient 5% acetonitrile 3 min, to 50% in 2 min, to 85% in 15 min, held 3 min, 100 µL/min
Conditions: column: Zorbax Extend-C18 2.1 x 50 mm; eluents: water / acetonitrile, 0.1% formic acid
In short: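 Retention times come from adduct peaks that were picked computationally and then checked by hand. The standards, pure and pooled in mixtures of ~100 molecules, were run on a Zorbax Extend-C18 column (2.1 × 50 mm, 1.8 μm) at 100 μL/min with water and acetonitrile, each with 0.1% formic acid. Detection was by quadrupole time-of-flight mass spectrometry in positive and negative ionization mode, with a dead volume of 40 μL and a dwell volume of 900 μL.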
CCOc1ccc(-c2cc3c(=O)n(Cc4nc(-c5ccc(C)c(C)c5)no4)ncn3n2)cc1 gave an RP-LC retention time of 1260 s.
With CC(=O)NCc1csc(C2CCN(C(=O)COc3ccc(Cl)cc3)CC2)n1 the RP-LC retention time was 708 s.
Work on CC(=O)c1ccc(NC(=O)C2CC(=O)N(c3ccc4c(c3)CCN4C(C)=O)C2)cc1 (stereo not drawn) yielded an RP-LC retention time of 670 s.
In the case of O=C([C@@H]1C[C@H](Oc2cccnc2)CN1C(=O)c1n[nH]c(=O)c2ccccc12)N1CCCC1, the RP-LC retention time is reported as 564 s.
Molecule O=C(Cn1cnc2ccccc2c1=O)N[C@@H](C(=O)O)c1ccc(O)cc1 has an RP-LC retention time of 589 s.
For CN(C)CCn1cc(C(=O)NCc2ccco2)ccc1=O, the RP-LC retention time was 590 s.
For Cc1cc2nn(CC(=O)Nc3ccc(F)cc3F)c(=O)n2c(Nc2ccc(F)c(C)c2)n1, the RP-LC retention time was 1060 s.
CCOC(=O)C1CCN(c2nc(-c3ccc(OC)cc3)no2)CC1 gave an RP-LC retention time of 981 s.
Work on Cc1ccccc1NC(=O)N1CCCN(c2ccc(=O)n(-c3ccccc3)n2)CC1 yielded an RP-LC retention time of 720 s.
CCC(=O)Nc1ccc(CCc2nc3ccc(C(=O)NCc4ccco4)cc3[nH]2)cc1 gave an RP-LC retention time of 597 s.
Molecule Cc1ccc(CNC(=O)c2cc3n(n2)CCCN(Cc2cccc(F)c2)C3=O)o1 has an RP-LC retention time of 853 s.
Work on O=c1c2sccc2n(Cc2nc(-c3ccc(F)c(Br)c3)no2)c(=O)n1-c1ccccc1 yielded an RP-LC retention time of 961 s.
CCOc1ccc(CNC(=O)COc2nc(C)nc3oc(C)c(C)c23)cc1 showed an RP-LC retention time of 892 s.
In the case of COc1ccc(-c2nc(Cn3c(C)cc(C)c(-c4nc(-c5ccccc5)no4)c3=O)c(C)o2)cc1, the RP-LC retention time is reported as 1230 s.
C=CCN1C(=O)C(C)(C)COc2cc(NS(=O)(=O)c3ccc(Cl)s3)ccc21 showed an RP-LC retention time of 975 s.
Work on COCC(=O)NC1CCC12CCN(C(=O)NC(C)C)CC2 (stereo not drawn) yielded an RP-LC retention time of 630 s.
In the case of COc1cccc(-c2noc(Cn3ccn(-c4cc(C)ccc4C)c(=O)c3=O)n2)c1, the RP-LC retention time is reported as 911 s.
In the case of CCCCN1CCN(C(=O)C2c3ccccc3CCN2C(=O)CC)CC1 (stereo not drawn), the RP-LC retention time is reported as 626 s.
In the case of COc1ccccc1C(=O)Nc1nc(-c2ccc3c(c2)N(C)C(=O)CO3)cs1, the RP-LC retention time is reported as 969 s.
In the case of CCN(CCN(C)C)c1ccc(C(=O)O)cc1NS(=O)(=O)c1ccc(F)cc1, the RP-LC retention time is reported as 613 s.
CCOc1ccccc1NC(=O)N1CCN(c2cc(C)nc(N3CCCC3)n2)CC1 gave an RP-LC retention time of 692 s.
COc1ccc(-c2nnc(COc3ccc(NC(=O)CNC(=O)Cc4ccccc4)cc3)o2)cc1 gave an RP-LC retention time of 812 s.
With CSc1ccc(CNC(=O)Cn2c(=O)cc(-c3nc(C)no3)c3ccccc32)cc1 the RP-LC retention time was 859 s.
Molecule Cc1ccc(N2CCC(NC(=O)C(C)C)C2=O)cc1C (stereo not drawn) has an RP-LC retention time of 762 s.
Work on COc1ccc(CNC(=O)Cn2nc(C(=O)N3CCCC3)c3ccccc32)cc1 yielded an RP-LC retention time of 773 s.
Work on CCn1ccc2cc(S(=O)(=O)N3CCC(C(=O)NCCCN4CCCC(C)C4)CC3)ccc21 (stereo not drawn) yielded an RP-LC retention time of 676 s.
For Cc1ccc(-n2c(C)c(C)c3c(=O)n(CC(=O)NC4CC4)cnc32)cc1, the RP-LC retention time was 769 s.
Molecule COc1cc(OC)c2c(C)cc(=O)oc2c1 has an RP-LC retention time of 809 s.
Work on Cc1nnc2c(NC(=O)Cc3cccc(C(F)(F)F)c3)cccn12 yielded an RP-LC retention time of 785 s.
For COc1cc2c(cc1OC)C(C(=O)NCCN1CCOCC1)C1c3ccccc3CCN1C2=O (stereo not drawn), the RP-LC retention time was 595 s.
With Cc1ccc2c(c1)N(Cc1ccccc1)N=C(C(=O)N1CCC(C)CC1)S2(=O)=O the RP-LC retention time was 1080 s.
For Cc1nc(-c2csc(S(=O)(=O)N3CCCC(C(=O)Nc4ccc(Cl)cc4)C3)c2)no1 (stereo not drawn), the RP-LC retention time was 1040 s.
For Cn1c(=O)cc(N2CCC[C@@H](N)C2)n(Cc2ccccc2C#N)c1=O, the RP-LC retention time was 641 s.
For O=C(N[C@H]1C[C@@H]2C[C@H]1N(C(=O)Cc1cccs1)C2)c1ccccc1, the RP-LC retention time was 746 s.
Work on CCOc1ccc(-c2nc(C3CC(=O)N(c4ccc(Cl)cc4)C3)no2)cc1 (stereo not drawn) yielded an RP-LC retention time of 1130 s.
In the case of Cn1cc(S(=O)(=O)N2CCCC2)cc1C(=O)N1CCC(Cc2ccccc2)CC1, the RP-LC retention time is reported as 960 s.
Cc1ccccc1CNC(=O)C1CCCN(c2nnc(C)c3c(C)n(-c4ccc(Cl)cc4)nc23)C1 (stereo not drawn) showed an RP-LC retention time of 784 s.
For O=C(c1ccc2nsnc2c1)N1CCN(c2ccc(F)cc2)CC1, the RP-LC retention time was 811 s.
Molecule COc1cc(C(=O)N2CCN(c3cc(=O)n(C(C)C)c(=O)n3C(C)C)CC2)cc(OC)c1OC has an RP-LC retention time of 800 s.
For COc1ccc(NC(=O)c2sc(-c3cn(C(C)C)c4ncccc34)nc2C)c(OC)c1, the RP-LC retention time was 1030 s.
For Cc1onc(-c2ccccc2Cl)c1C(=O)N1CCC2(CC1)CC(=O)c1ccccc1O2, the RP-LC retention time was 858 s.
CCN(C(=O)Cn1nc(S(=O)(=O)c2ccc(Cl)cc2)ccc1=O)c1ccccc1 showed an RP-LC retention time of 920 s.
Work on COc1ccc(CN(Cc2ccccc2)Cc2cc(=O)n3cc(C)ccc3n2)cc1 yielded an RP-LC retention time of 696 s.
With CCCn1c(-c2cccc(C(=O)NC(CC)c3cccs3)c2)nc2cccnc21 (stereo not drawn) the RP-LC retention time was 886 s.
For O=C(c1ccc(Br)cc1)N1CCN(c2cc(-c3ccc(Cl)cc3)[nH]n2)CC1, the RP-LC retention time was 945 s.
Work on CC(=O)N1CCN(C(=O)c2cccn2CC(=O)N2CCc3ccccc32)CC1 yielded an RP-LC retention time of 627 s.
Molecule CC(C)CC(=O)NCCC1CCN(C(=O)Nc2cc(F)ccc2F)CC1 has an RP-LC retention time of 1190 s.
Cc1c(C(=O)Nc2ccc(N3CCC(N4CCOCC4)CC3)c(C#N)c2)cnn1-c1ccc(Cl)cc1 gave an RP-LC retention time of 800 s.
For COCCNC(=O)NC1CCN(C2=NS(=O)(=O)C(c3cccc(Cl)c3)=C2C)CC1, the RP-LC retention time was 718 s.
For O=C(c1c[nH]c2ccccc12)N1CCCC1c1nc(-c2ccccc2)n[nH]1 (stereo not drawn), the RP-LC retention time was 649 s.
Molecule Cc1ccc(C(=O)N2CCC(n3c(-c4ccoc4)nc4cccnc43)C2)cc1C (stereo not drawn) has an RP-LC retention time of 806 s.
Work on COc1ccc(-c2nnc(-c3cccnc3NCc3cc(OC)cc(OC)c3)o2)cc1 yielded an RP-LC retention time of 1160 s.
Molecule CCc1c(C2CCN(C(=O)c3ccnn3C)CC2)noc1N has an RP-LC retention time of 596 s.
CCCCS(=O)(=O)N1CCc2nc(-c3ccc(OC)cc3)ncc2C1 showed an RP-LC retention time of 983 s.
Work on Cc1oc2ccn(Cc3ccccc3F)c(=O)c2c1C(=O)NCc1cccs1 yielded an RP-LC retention time of 1030 s.
Molecule O=C(NCCCN1CCCC1=O)C1CCCN(c2ncnc3c2nc2n3CCCCC2)C1 (stereo not drawn) has an RP-LC retention time of 605 s.
Cc1noc(C2CN(C(=O)Nc3ccc(C)c(Cl)c3)CC23CCOCC3)n1 (stereo not drawn) showed an RP-LC retention time of 816 s.
Work on COC(=O)c1ccc(NC(=O)N(C)Cc2cc(=O)[nH]c3ccccc23)cc1 yielded an RP-LC retention time of 694 s.
With O=C(Cc1csc2nc(-c3cccc(Br)c3)cn12)NC1CCCC1 the RP-LC retention time was 888 s.
Work on Cc1cnc(-c2ccccc2)n1CCNS(=O)(=O)c1ccc(C#N)cc1 yielded an RP-LC retention time of 634 s.
For CCOC(=O)CC1(NC(=O)Nc2ccc3nc(C)cc(OC)c3c2)CCCCC1, the RP-LC retention time was 689 s.
Molecule COc1ccc(-c2ccnc3nc(-c4cccs4)nn23)c(F)c1 has an RP-LC retention time of 905 s.
For CCc1ccccc1N1C(=O)CN(S(C)(=O)=O)CC1(C)C(=O)NCc1ccc(Cl)cc1 (stereo not drawn), the RP-LC retention time was 893 s.
With COc1ccccc1-c1noc(CN2C(=O)COc3ccccc32)n1 the RP-LC retention time was 880 s.
COc1ccc(-c2cn3cccnc3n2)cc1NC(=O)c1ccc(Cl)cc1 showed an RP-LC retention time of 743 s.
Molecule CCc1noc(C2CCCCN2C(=O)c2c[nH]c3ccccc23)n1 (stereo not drawn) has an RP-LC retention time of 647 s.
Work on Cc1onc(-c2c(F)cccc2Cl)c1C(=O)N1CCOCC1 yielded an RP-LC retention time of 727 s.
Molecule C#CCN[C@@H]1CCc2ccccc21 has an RP-LC retention time of 613 s.
With COc1ccc2c(C)c(CCC(=O)N[C@@H](C(=O)O)C(C)C)c(=O)oc2c1C the RP-LC retention time was 746 s.
Work on CCCC(=O)N1C[C@H]2C[C@H](C1)[C@H]1CCCC(=O)N1C2 yielded an RP-LC retention time of 601 s.
In the case of Cc1cccc(-c2noc(Cn3nc(-c4ccccc4)ccc3=O)n2)c1, the RP-LC retention time is reported as 1060 s.
For Cc1cc(=O)n(CC#N)c(N2CCCCC2)n1, the RP-LC retention time was 655 s.
O=C(Nc1ccc2c(N3CCCCC3)ncnc2c1)c1ccc(Br)o1 showed an RP-LC retention time of 685 s.
In the case of O=C(CN1C(=O)C2CCCCN2c2ccc(S(=O)(=O)N3CCCCC3)cc21)NC1CCCCC1 (stereo not drawn), the RP-LC retention time is reported as 1030 s.
Cc1ccc(S(=O)(=O)N2C[C@@H](F)C[C@H]2C(=O)N2CCOCC2)cc1F gave an RP-LC retention time of 710 s.
In the case of O=[N+]([O-])c1ccc(CNc2nc(NCc3cccc(C(F)(F)F)c3)nc3nc[nH]c23)cc1, the RP-LC retention time is reported as 790 s.
CCOc1ccc2nc(Nc3ncc4c(n3)CC(c3ccc(OC)cc3)CC4=O)nc(C)c2c1 (stereo not drawn) gave an RP-LC retention time of 809 s.
Cc1ccccc1-c1csc2c(=O)n(Cc3ccc(N4CCCC4=O)cc3)cnc12 showed an RP-LC retention time of 889 s.
CCN1C(=O)C(C)(C(=O)Nc2ccc(F)cc2F)Oc2cccnc21 (stereo not drawn) gave an RP-LC retention time of 875 s.
Molecule O=C(c1cc(F)ccc1Cl)N1CCN(c2cc(-c3ccc(F)cc3)[nH]n2)CC1 has an RP-LC retention time of 847 s.
For CCOC(=O)C1CCN(c2cc3c(cc2NC(=O)CC2CCCCC2)n(C)c(=O)c(=O)n3C)CC1, the RP-LC retention time was 981 s.
COCCCNC(=O)c1csc(-c2cnccn2)n1 gave an RP-LC retention time of 625 s.
O=C(NCc1cccs1)c1ccnc(N2CCNC(c3ccccc3)C2)c1 (stereo not drawn) showed an RP-LC retention time of 631 s.
Molecule CN(C)c1ccc2c(c1)CN(Cc1ccccc1C#N)CCO2 has an RP-LC retention time of 592 s.
In the case of O=c1oc2c(O)c(O)ccc2c2c1CCCC2, the RP-LC retention time is reported as 683 s.
O=C(c1ccc2c(c1)N(Cc1ccc(F)cc1)C(=O)CO2)N1CCN(c2ccccn2)CC1 showed an RP-LC retention time of 639 s.
Work on COCCNC(=O)N1CCCN(C2=NS(=O)(=O)C(c3ccccc3)=C2C)CC1 yielded an RP-LC retention time of 676 s.
Work on CN1CCc2c([nH]c3ccccc23)C12CCN(S(=O)(=O)c1cccnc1)CC2 yielded an RP-LC retention time of 585 s.
